Test results from patent US9572831B2, “Composition and method for sulfated non-anticoagulant low molecular weight heparins in cancer and tumor metastasis” (priority 2013, dated 2017).

Columns and labels:
[1] = Bleeding time (tail transection); type: in vivo, mice; conditions: dose not stated; vs control
Experimental: Bleeding time in mice was tested during the period of receiving test compounds. Mice were anesthetized with isoflurane inhalation. By using a scalpel, 0.5 cm of the distal end of the tail was transected, and the remaining length of tail was immersed immediately into a 37° C. solution of saline. Bleeding time was measured from the time of tail transection until visible bleeding could no longer be detected. The experiment was repeated 3 times with different groups and concentrations.

[2] = test system: pancreatic (Panc-1) tumor; experiment: CAM tumor implant model, Panc-1; type: in vivo; conditions: 10 ug/CAM
[3] = test system: MCF7 DOX resistant cancer cells; experiment: Orthotopic implant of MCF7 DOX resistant cells in nude mice; type: in vivo; conditions: 10 mg/Kg, SC daily for 15 days, vs control
Experimental: Immune-deficient female NCr nude homozygous mice aged 5-6 weeks weighing 18-20 g were purchased from Harlan Laboratories (Indianapolis, Ind.). All animal studies were conducted in accordance with the institutional guidelines for humane animal treatment. Mice were maintained under specific pathogen-free conditions and housed under controlled conditions of temperature (20-24° C.), humidity (60-70%), and 12 h light/dark cycle with ad libitum access to water and food. Mice were allowed to acclimatize for 5 days prior to the start of study.
Orthotopic implant of 0.5 million of MCF7 DOX resistant cancer cells in nude mice result in progressive rapid tumor growth approaching 150 mm3 after 5 days of implant.

MPanc96-luc cells = type: in vivo, athymic nude mice; conditions: S-NACH 20 mg/kg, tinzaparin 5 mg/kg
Experimental: MPanc96-luc cells were harvested as described above and were orthotopically implanted (2×10^5 cells in 50 μl PBS per mouse) in the pancreas of anesthetized athymic nude mice. Just before treatment initiation, animals (n=10 per group) were randomized by tumor mass detected by an in vivo imaging system (IVIS, described below). Heparin derivatives S-NACH at 20 mg/kg and tinzaparin at 5 mg/kg were administered subcutaneously daily. Gemcitabine at 100 mg/kg was injected intraperitoneally twice a week alone or in combination with either S-NACH or tinzaparin. All mice used for treatment response evaluations were euthanized after 28 days. See Table 2 for the protocol of the study. Imaging was performed once per week to monitor tumor growth. Mice bearing MPanc96-luc tumors were anaesthetized using isoflurane, injected subcutaneously with 50 μl D-luciferin (30 mg/ml), then imaged. Photographic and luminescence images were taken at constant exposure time. Xenogen IVIS® Living Image software version 3.2 was used to quantify non-saturated bioluminescence in regions of interest. Light emission between 5.5×10^6-7.0×10^10 photons was assumed to be indicative of viable luciferase-labeled tumor cells while emissions below this range were considered as background. Bioluminescence was quantified as photons/second for each region of interest. In vivo tumor kinetic growth and metastasis were monitored by signal intensity. Ex vivo imaging was performed to confirm the signal intensity in the tumors after the termination. All specimens were analyzed by histology for routine analysis. Specimens were fixed in 10% buffered formalin, processed routinely, and embedded in paraffin. Then, after fixation, the specimens were transferred into the embedding chambers to hold the specimens in position until the paraffin became solid to prevent further rotation. Four μm serial sections were cut, and then stained using haematoxylin and eosin. Sections were evaluated for various pathologic parameters using a light microscope (Leica, Buffalo Grove, Ill.).

In the case of tinzaparin, the bleeding time [1] is reported as “extended the bleeding significantly”, the “tumor growth or tumor angiogenesis” value [2] is reported as “inhibited” and the tumor growth progression [3] is reported as “halting tumor growth progression”. For the same substance, the “tumor necrosis (histology)” value (MPanc96-luc cells) was “modest increase in necrotic area”.
